{"source": "patent US20230167103A1", "about": "(Bayer Aktiengesellschaft, priority 2020, published 2023)"}
{"biological_target": "T1, human DGKζ (Homo sapiens, UniProt Q13574)", "T1 construct": "made in house; host or cells: Sf9 insect cells, baculovirus", "T1 sequence (Q13574 with tags, fused parts or gaps)": "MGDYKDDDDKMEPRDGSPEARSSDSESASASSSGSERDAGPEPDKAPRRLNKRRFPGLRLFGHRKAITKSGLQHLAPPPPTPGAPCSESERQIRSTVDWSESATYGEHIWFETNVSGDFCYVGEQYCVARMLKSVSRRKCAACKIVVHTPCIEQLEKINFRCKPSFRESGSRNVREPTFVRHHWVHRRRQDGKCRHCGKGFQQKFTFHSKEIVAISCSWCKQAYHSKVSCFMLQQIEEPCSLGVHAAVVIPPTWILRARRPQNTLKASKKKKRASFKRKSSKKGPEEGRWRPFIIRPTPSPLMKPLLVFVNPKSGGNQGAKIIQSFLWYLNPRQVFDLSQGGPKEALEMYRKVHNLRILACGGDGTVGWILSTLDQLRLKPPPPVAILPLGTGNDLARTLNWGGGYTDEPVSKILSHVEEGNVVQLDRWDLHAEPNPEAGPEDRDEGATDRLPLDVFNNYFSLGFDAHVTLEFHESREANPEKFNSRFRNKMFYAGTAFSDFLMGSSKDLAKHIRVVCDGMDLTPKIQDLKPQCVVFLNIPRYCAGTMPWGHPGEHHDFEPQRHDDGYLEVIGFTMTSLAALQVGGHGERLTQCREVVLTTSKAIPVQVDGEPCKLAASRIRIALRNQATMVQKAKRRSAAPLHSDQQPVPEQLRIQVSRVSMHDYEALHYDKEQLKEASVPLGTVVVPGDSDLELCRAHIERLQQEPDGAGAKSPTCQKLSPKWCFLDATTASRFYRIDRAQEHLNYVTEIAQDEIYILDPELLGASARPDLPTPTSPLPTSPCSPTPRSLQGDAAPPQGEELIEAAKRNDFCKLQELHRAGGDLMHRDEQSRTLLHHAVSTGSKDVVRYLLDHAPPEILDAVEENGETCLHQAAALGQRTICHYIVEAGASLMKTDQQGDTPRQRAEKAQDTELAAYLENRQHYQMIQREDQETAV", "experiment": "Human DGKζ kinase activity inhibition assay (ADP-Glo)", "type": "biochemical", "conditions": "example compounds; recombinant full-length human DGKζ, 1,2-dioleoyl-sn-glycerol 7 μM, ATP 55 μM, 20 min at 22° C.; read-out: IC50 values of examples in in vitro human DGKζ kinase activity inhibition assays", "protocol": "Human diacylglycerol kinase zeta (DGKζ) inhibitory activity of compounds of the present invention was quantified employing the human DGKζ kinase activity assay as described in the following paragraphs. In essence, the enzyme activity was measured by quantification of the adenosine-di-phosphate (ADP) generated as a co-product of the enzyme reaction via the “ADP-Glo™ Kinase Assay” kit from the company Promega. This detection system works as follows: In a first step the adenosine-tri-phosphate (ATP) not consumed in the kinase reaction is quantitatively converted to cyclic adenosine-mono-phosphate (cAMP) employing an adenylate cyclase (“ADP-Glo-reagent”), then the adenylate cyclase is stopped and the ADP generated in the kinase reaction is converted to ATP, which subsequently generates in a luciferase-based reaction a glow-luminescence signal (“Kinase Detection Reagent”).\nC-terminally FLAG-tagged, recombinant full-length human DGKζ (inhouse expressed in baculovirus infected insect cells, purified using anti-Flag pulldown and size exclusion chromatography) was used as enzyme. As an alternative, commercially available enzyme by Carnabio can be used. As substrate for the kinase, 1,2-dioleoyl-sn-glycerol, reconstituted in octyl-β-D-glucopyranoside micelles, was used. […] Subsequently, 22.55 volumes of a 510 mM solution of octyl-β-D-glucopyranoside (Sigma-Aldrich, Cat. #O8001-10G) in 50 mM MOPS buffer (pH 7.4) were added, and the mixture was sonicated in an ultrasonic bath for 20 s. Then 35 volumes of 50 mM MOPS buffer (pH 7.4) were added to yield a solution of 0.28 mM 1,2 dioleoyl-sn-glycerol and 200 mM octyl-β-D-glucopyranoside, which was aliquoted, flash-frozen in liquid nitrogen, and stored at −20° C. until use.\nFor the assay 50 nl of a 100-fold concentrated solution of the test compound in dimethyl sulfoxide (DMSO, Sigma) was pipetted into either a white 1536-well or a white low-volume 384-well microtiter plate (both Greiner Bio-One, Frickenhausen, Germany). […] The concentration of DGKζ was adjusted depending of the activity of the enzyme lot and was chosen appropriate to have the assay in the linear range, a typical concentration is about 0.1 nM. The reaction was stopped by the addition of 2.5 μL of “ADP-Glo-reagent” (1 to 1.5 diluted with water) and the resulting mixture was incubated at 22° C. for 1 h to convert the ATP not consumed in the kinase reaction completely to cAMP. Subsequently 2.5 μl of the “kinase detection reagent” (1.2 fold more concentrated than recommended by the producer) were added, the resulting mixture was incubated at 22° C. for 1 h and then the luminescence measured with a suitable measurement instrument (e.g. Viewlux™ from Perkin-Elmer). The amount of emitted light was taken as a measure for the amount of ADP generated and thereby for the activity of the DGKζ.\nThe data were normalised (enzyme reaction without inhibitor=0% inhibition, all other assay components but no enzyme=100% inhibition).", "units": {"IC50": "nM"}}
{"smiles": "CC(C(N)=O)N(c1ccc(F)c(F)c1)c1nc(N)c(C(=O)c2cc(C(=O)NC3CCCC3)no2)s1", "note": "(racemic) [Example 46, rac-5-[4-amino-2-(N-(2-amino-1-methyl-2-oxo-ethyl)-3,4-difluoro-anilino)thiazole-5-carbonyl]-N-cyclopentyl-isoxazole-3-carboxamide]", "IC50": 77}
{"smiles": "CC(C(N)=O)N(c1ccc(F)cc1)c1nc(N)c(C(=O)c2cc(C3CCCC3)no2)s1", "note": "(racemic) [Example 47, rac-2-(N-[4-amino-5-(3-cyclopentylisoxazole-5-carbonyl)thiazol-2-yl]-4-fluoro-anilino)propanamide]", "IC50": 42}
{"smiles": "CC(C(N)=O)N(c1ccc(F)cc1)c1nc(N)c(C(=O)c2cc(OC(F)F)no2)s1", "note": "(racemic) [Example 48, rac-2-(N-[4-amino-5-[3-(difluoromethoxy)isoxazole-5-carbonyl]thiazol-2-yl]-4-fluoro-anilino)propanamide]", "IC50": 73}
{"smiles": "CC(C)c1noc(C(=O)c2sc(N(c3ccc(F)cc3)C(C)C(N)=O)nc2N)n1", "note": "(racemic) [Example 49, rac-2-(N-[4-amino-5-(3-isopropyl-1,2,4-oxadiazole-5-carbonyl)thiazol-2-yl]-4-fluoro-anilino)propanamide]", "IC50": 28}
{"smiles": "CC(C(N)=O)N(c1ccc(F)cc1)c1nc(N)c(C(=O)c2cc(-c3ccccc3)ns2)s1", "note": "(racemic) [Example 50, rac-2-(N-[4-amino-5-(3-phenylisothiazole-5-carbonyl)thiazol-2-yl]-4-fluoro-anilino)propanamide]", "IC50": 409}
{"smiles": "CC(C(N)=O)N(c1ccc(F)cc1)c1nc(N)c(C(=O)c2nc(-c3ccccc3)no2)s1", "note": "(racemic) [Example 51, rac-2-(N-[4-amino-5-(3-phenyl-1,2,4-oxadiazole-5-carbonyl)thiazol-2-yl]-4-fluoro-anilino) propanamide]", "IC50": 17}
{"smiles": "Cc1noc(C(=O)c2sc(N(c3ccc(F)cc3)C(C)C(N)=O)nc2N)n1", "note": "(racemic) [Example 52, rac-2-(N-[4-amino-5-(3-methyl-1,2,4-oxadiazole-5-carbonyl)thiazol-2-yl]-4-fluoro-anilino)propanamide]", "IC50": 412}
{"smiles": "CC(C(N)=O)N(c1ccc(F)cc1)c1nc(N)c(C(=O)c2nc(C(C)(C)C)no2)s1", "note": "(racemic) [Example 53, rac-2-(N-[4-amino-5-(3-tert-butyl-1,2,4-oxadiazole-5-carbonyl)thiazol-2-yl]-4-fluoro-anilino)propanamide]", "IC50": 25}
{"smiles": "CC(C(N)=O)N(c1ccc(F)cc1)c1nc(N)c(C(=O)c2nc(-c3ccccn3)no2)s1", "note": "(racemic) [Example 54, rac-2-(N-[4-amino-5-[3-(2-pyridyl)-1,2,4-oxadiazole-5-carbonyl]thiazol-2-yl]-4-fluoro-anilino)propanamide]", "IC50": 306}
{"smiles": "CC(C(N)=O)N(c1ccc(F)cc1)c1nc(N)c(C(=O)c2nc(-c3cccc(F)c3)no2)s1", "note": "(racemic) [Example 55, rac-2-(N-[4-amino-5-[3-(3-fluorophenyl)-1,2,4-oxadiazole-5-carbonyl]thiazol-2-yl]-4-fluoro-anilino)propanamide]", "IC50": 17}
{"smiles": "Cc1cccc(-c2noc(C(=O)c3sc(N(c4ccc(F)cc4)C(C)C(N)=O)nc3N)n2)c1C", "note": "(racemic) [Example 56, rac-2-(N-[4-amino-5-[3-(2,3-dimethylphenyl)-1,2,4-oxadiazole-5-carbonyl]thiazol-2-yl]-4-fluoro-anilino)propanamide]", "IC50": 14}
{"smiles": "CC(C(N)=O)N(c1ccc(F)cc1)c1nc(N)c(C(=O)c2nc(C3CC3)no2)s1", "note": "(racemic) [Example 57, rac-2-(N-[4-amino-5-(3-cyclopropyl-1,2,4-oxadiazole-5-carbonyl)thiazol-2-yl]-4-fluoro-anilino)propanamide]", "IC50": 32}
{"smiles": "CC(C(N)=O)N(c1ccc(F)cc1)c1nc(N)c(C(=O)c2nc(-c3cnn(C)c3)no2)s1", "note": "(racemic) [Example 58, rac-2-(N-[4-amino-5-[3-(1-methylpyrazol-4-yl)-1,2,4-oxadiazole-5-carbonyl]thiazol-2-yl]-4-fluoro-anilino)propanamide]", "IC50": 325}
{"smiles": "CC(C(N)=O)N(c1ccc(F)cc1)c1nc(N)c(C(=O)c2nc(C3CCCC3)no2)s1", "note": "(racemic) [Example 59, rac-2-(N-[4-amino-5-(3-cyclopentyl-1,2,4-oxadiazole-5-carbonyl)thiazol-2-yl]-4-fluoro-anilino)propanamide]", "IC50": 12}
{"smiles": "CC(C(N)=O)N(c1ccc(F)cc1)c1nc(N)c(C(=O)c2cc(CN(C)C3CCCC3)no2)s1", "note": "(racemic) [Example 60, rac-2-(N-[4-amino-5-[3-[[cyclopentyl(methyl)amino]methyl]isoxazole-5-carbonyl]thiazol-2-yl]-4-fluoro-anilino)propanamide]", "IC50": 58}
{"smiles": "CC(C(N)=O)N(c1ccc(F)cc1)c1nc(N)c(C(=O)c2cc(CNC3(C)CCCC3)no2)s1", "note": "(racemic) [Example 61, rac-2-(Np[4-amino-5-[3-[[(1-methylcyclopentyl)amino]methyl]isoxazole-5-carbonyl]thiazol-2-yl]-4-fluoro-anilino)propanamide]", "IC50": 98}
{"smiles": "CC(C(N)=O)N(c1ccc(F)cc1)c1nc(N)c(C(=O)c2cc(CNC3CCCC3)no2)s1", "note": "(racemic) [Example 62, rac-2-(N-[4-amino-5-[3-[(cyclopentylamino)methyl]isoxazole-5-carbonyl]thiazol-2-yl]-4-fluoro-anilino)propanamide]", "IC50": 194}
{"smiles": "CC(C(N)=O)N(c1ccc(F)cc1)c1nc(N)c(C(=O)c2cc(CN3CCCCC3)no2)s1", "note": "(racemic) [Example 63, rac-2-(N-[4-amino-5-[3-(1-piperidylmethyl)isoxazole-5-carbonyl]thiazol-2-yl]-4-fluoro-anilino)propanamide]", "IC50": 88}
{"smiles": "CC(C(N)=O)N(c1ccc(F)cc1)c1nc(N)c(C(=O)c2cc(COc3ccc(C#N)cc3)no2)s1", "note": "(racemic) [Example 64, rac-2-(N-[4-amino-5-[3-[(4-cyanophenoxy)methyl]isoxazole-5-carbonyl]thiazol-2-yl]-4-fluoro-anilino)propanamide]", "IC50": 32}
{"smiles": "CC(C(N)=O)N(c1ccc(F)cc1)c1nc(N)c(C(=O)c2cc(CO)no2)s1", "note": "(racemic) [Example 65, rac-2-(N-[4-amino-5-[3-(hydroxymethyl)isoxazole-5-carbonyl]thiazol-2-yl]-4-fluoro-anilino)propanamide]", "IC50": 751}
{"smiles": "CC(C(N)=O)N(c1ccc(F)cc1)c1nc(N)c(C(=O)c2cc(COC(=O)Nc3ccccc3)no2)s1", "note": "(racemic) [Example 66, rac-[5-[4-amino-2-(N-(2-amino-1-methyl-2-oxo-ethyl)-4-fluoro-anilino)thiazole-5-carbonyl]isoxazol-3-yl]methyl N-phenylcarbamate]", "IC50": 29}
{"smiles": "CC(C(N)=O)N(c1ccc(F)cc1)c1nc(N)c(C(=O)c2cc(-c3ccccc3F)no2)s1", "note": "(racemic) [Example 67, rac-2-(N-[4-amino-5-[3-(2-fluorophenyl)isoxazole-5-carbonyl]thiazol-2-yl]-4-fluoro-anilino)propanamide]", "IC50": 109}
{"smiles": "CC(C(N)=O)N(c1ccc(F)cc1)c1nc(N)c(C(=O)c2cc(-c3ccccn3)no2)s1", "note": "(racemic) [Example 68, rac-2-(N-[4-amino-5-[3-(2-pyridypisoxazole-5-carbonyl]thiazol-2-yl]-4-fluoro-anilino)propanamide]", "IC50": 402}
